Where two headings read alike, the source gives them in different places.
What was measured:
[1] = system: CIC-1 inhibited rat soleus muscles; test: Myotonia (tail AUC of force response) in 9AC-treated isolated rat soleus muscle; conditions: for EC50: Rattus norvegicus; for Ability to abolish myotonia / Slope of fit: rat soleus; for Ability to abolish myotonia: 9AC, increasing concentrations; for Reduction of myotonia within clinically observed concentration ranges: isolated muscle, species not stated at this place (study on rat and human); for Slope of fit: 3-parameter sigmoidal fit of AUC vs concentration
[2] = system: non-myotonic rat soleus muscles; test: Contractile force in non-myotonic isolated rat soleus muscles; format: cell-based; conditions: three hrs incubation, 5 and 60 Hz stimulation, similar to time-matched controls
Description: To first test for effects of the three drugs (RUF, LCM and LTG) on force in non-myotonic rat soleus muscles, muscles were exposed to 2 s stimulations at both 5 Hz and 60 Hz every 10 mins during three hrs of drug incubation. The drug concentrations were the highest free concentrations that are tolerated clinically: For both 5 and 60 Hz stimulation, incubation with 5 μM LCM reduced force by ˜6-8% in two muscles. With 25 μM LTG force was reduced by ˜6% in three muscles, and with 100 μM RUF force was reduced by 4% in three muscles. In all cases, these reductions in force during the three hours were similar to reductions observed in time-matched control muscles.

[3] = system: isolated human abdominal rectus muscle; test: Myotonia (tail AUC) in 9AC-treated bundles of isolated human abdominal rectus muscle; format: cell-based; conditions: for EC50: Homo sapiens, read-out: EC50 (concentration required to reduce AUC to 50% of maximal value); for Slope of fit: human muscle bundles, 3-parameter sigmoidal fit, mean ± SEM; for Ability to abolish myotonia: isolated human muscles, 9AC, increasing concentrations
Description: As in rat muscles myotonia was induced with 9-AC and quantified from the AUC as determined from the cessation of stimulation to force returned to baseline. […] C and D show similar data for RUF (n=4) and LTG (n=6), respectively.
The use of human muscles was approved by the Danish Ethics Committee, Region Midtjylland, Comité I (reference number Jan. 10, 1972-20-13) and was performed in accordance with the Helsinki Declaration. Informed consent was obtained from all subjects before inclusion. Muscles were obtained from 4 male subjects admitted in relation to planned aortic aneurysm surgery at Skejby hospital. […] After isolation the tissue was transported to the laboratory at the University (<30 min) in a HEPES based solution (pH 7.4) at ˜5° C. Upon arrival to the laboratory, the tissue was incubated in often-replaced fresh Krebs-Ringer bicarbonate solution equilibrated with 5% CO2 in oxygen at 30° C. for 10 to 20 min, before further dissection into smaller bundles of approx. 4 cm length weighing 515±61 mg. For contraction experiments, bundles were tied at both ends with polyester string, to enable mounting of the preparations in the setups for measurement of contractile force.
The experiments in FIG. 1 were repeated for small muscle bundles of human abdominal muscle. 9AC was used to induce myotonia and, subsequently, LCM, RUF or LTG were added at increasing concentrations. In all cases, myotonia was reduced with increased concentration of drug. […] Similar traces were obtained with LCM-and LTG-treated bundles of human muscle. FIG. 2B-D show data and sigmoidal fits from individual bundles with additions of LCM (n=5), RUF (n=5) and LTG (n=6), respectively.

rat EDL muscles = test: LDH release from stimulated 9AC-treated (myotonic) rat EDL muscles; format: cell-based; conditions: stimulation for 60 min, LDH followed 3 hrs after contraction
Description: In all cases a sample was taken before stimulation (Pre), the muscles were then stimulated to contraction for 2 s at 30 Hz by 0.2 ms pulses every 3 minutes for 60 min (20 stimulations) or left resting. Open symbols are from muscles incubated with 9AC±LTG or RUF. Solid triangles are from muscles incubated with 9AC without stimulation. Immediately after cessation of stimulation, a new sample was taken from solution incubating the muscles. For the next 180 minutes a sample was taken from the incubating solution every 30 minutes, as designated by the time after stimulation. The period from cessation of stimulation to 180 min after stimulation is termed recovery.
EDL muscles from rats were isolated and placed in small chambers with oxygenated as previously described in detail (Gissel H1, Clausen T. Excitation-induced Ca(2+) influx in rat soleus and EDL muscle: mechanisms and effects on cellular integrity. Am J Physiol Regul Integr Comp Physiol. 2000 279(3): R917-24).
To explore for an effect of myotonia on muscle fibre integrity and the effect of the drugs hereupon, the release of the intracellular protein from the muscle, lactate dehydrogenase (LDH), to the incubation solution was determined in contracting EDL muscles.

[4] = 10 min, read-out: EC50 (reduction of AUC), rat soleus, 100 μM 9AC, 15 Hz 2 s every 10 min, two muscles per compound
[5] = read-out: EC50 (concentration required to reduce AUC to 50% of maximal value), rat soleus, 100 μM 9AC, 15 Hz 2 s stimulation, 3-parameter sigmoidal fit, mean ± SEM, Table 1 prints no unit, b139 gives concentrations in μM

Structure (SMILES)	EC50 [1, 4] [µM]	Ability to abolish myotonia [1]	EC50 [3] [µM]	Slope of fit [3]	Ability to abolish myotonia [3]	Effect on myotonia-induced LDH release (muscle damage) (rat EDL muscles)	EC50 [1, 5] [µM]	Reduction of myotonia within clinically observed concentration ranges [1] [%]	Slope of fit ([1]; mean ± SEM)	also measured
NC(=O)c1nnn(Cc2ccccc2)c1N [Compound 1, 5-amino-1-benzyl-1H-1,2,3-triazole-4-carboxamide]	24.7	completely abolish myotonia	–	–	–	–	–	–	–	–
Cc1c(C(N)=O)nnn1Cc1ccccc1 [Compound 2, 1-benzyl-5-methyl-1H-1,2,3-triazole-4-carboxamide]	19.1	completely abolish myotonia	–	–	–	–	–	–	–	–
Nc1nnc(-c2cccc(Cl)c2Cl)c(N)n1 [Lamotrigine, 6-(2,3-dichlorophenyl)-1,2,4-triazine-3,5-diamine]	–	completely abolish myotonia	5.54 ± 0.88	−0.30 ± 0.068	completely abolish myotonia	Very similar effects	1.52 ± 0.13	92±2	−0.39 ± 0.042	Reduction of force ([2]; 25 μM LTG): ~6%; AUC as % of the full myotonic state ([1]; 0.5 μM LTG (FIG. 3 A3)): 90%; Reduction of AUC (myotonia) ([1]; 2 μM LTG (FIG. 1 C3)): ~46%; Reduction of AUC (myotonia) ([1]; 16 μM LTG (FIG. 1 C4)): ~98%
NC(=O)c1cn(Cc2c(F)cccc2F)nn1 [Rufinamide, 1-(2,6-Difluorobenzyl)-1H-1,2,3-triazole-4-carboxamide]	–	completely abolish myotonia	22.5 ± 1.73	−0.33 ± 0.035	completely abolish myotonia	completely blocked	18.1 ± 1.84	92±2	−0.29 ± 0.02	Reduction of force ([2]; 100 μM RUF): 4%; Effect on myotonia ([3]; 80 μM RUF, single human muscle bundle, 100 μM 9AC (FIG. 2A)): almost full abolishment of myotonia; Reduction of AUC (myotonia) ([1]; 20 μM RUF, 9AC treated muscle (FIG. 1 B3)): more than 50%; Reduction of AUC (myotonia) ([1]; 100 μM RUF (FIG. 1 B4)): ~98%; EC50 ([1]; read-out: RUF concentration for AUC to be reduced by 50%, in presence of 0.5 μM LTG (n=6)): 7 µM; EC50 ([1]; read-out: RUF concentration for AUC to be reduced by 50%, pre-incubation with 1 μM LTG (n=4)): 3.1 µM; RUF concentration less than expected if RUF and LTG acted purely additively ([1]; isobole plot, 0.5 μM LTG): 5 µM; RUF concentration less than predicted by the assumption of additivity ([1]; isobole plot, 1 μM LTG): 3 µM; RUF concentration for half effect as % of concentration expected for additive action ([1]; with 0.5 μM or 1 μM LTG, both cases): around 50%
